Measurements taken from US10940139B2, “Compounds that interact with the Ras superfamily for the treatment of cancers, inflammatory diseases, rasopathies, and fibrotic disease” (Shy Therapeutics LLC, priority 2017, dated 2021).

These compounds were tested on MIA-PACA2 pancreatic cancer cell lines (assay: Cell proliferation assay (CellTiter 96 AQueous One)). Conditions: Homo sapiens, MIA PaCa-2; MIA-PACA2, same assay as the % inhibition (standard conditions).
Type: cell-based

Row | SMILES | IC50
1 | COc1ccnc(-c2nc(O)c3ccsc3n2)c1 [drawing 1631] | 100 to 500 nM
2 | COc1cccc(N2CCN(C(=O)c3csc4c(O)nc(-c5ccccn5)nc34)CC2)c1 [drawing 1632] | 100 to 500 nM
3 | COc1ccnc(-c2nc(O)c3c(Br)csc3n2)c1 [drawing 1637] | 100 to 500 nM
4 | CC1CN(c2ccccc2)CCN1C(=O)c1csc2c(O)nc(-c3ccccn3)nc12 (centres unmarked) [drawing 1654] | 501 to 1000 nM

Same assay, conditions: Homo sapiens, MIA PaCa-2; at 30 μM, MIA-PACA2

Row | SMILES | inhibition at 30 µM
5 | CC(=O)N1CCN(c2nc(-c3ccccn3)nc3scc(-c4ccccc4)c23)CC1 [drawing 1626] | 76 to 100%
6 | O=C1CCN(c2nc(-c3ccccn3)nc3scc(-c4ccccc4)c23)CC1 [drawing 1627] | 76 to 100%
7 | Nc1nc(O)c2nc[nH]c2n1 [drawing 1629] | 1 to 25%
8 | Cc1sc2nc(N)nc(O)c2c1C [drawing 1630] | 1 to 25%
9 | COc1ccnc(-c2nc(O)c3ccsc3n2)c1 [drawing 1631] | 76 to 100%
10 | COc1cccc(N2CCN(C(=O)c3csc4c(O)nc(-c5ccccn5)nc34)CC2)c1 [drawing 1632] | 76 to 100%
11 | Cc1ccccc1N1CCN(C(=O)c2csc3c(O)nc(-c4ccccn4)nc23)CC1 [drawing 1633] | 76 to 100%
12 | O=C(c1csc2c(O)nc(-c3ccccn3)nc12)N1CCN(Cc2cccc(O)c2)CC1 [drawing 1634] | 76 to 100%
13 | O=C(c1csc2c(O)nc(-c3ccccn3)nc12)N1CCOC(c2cccc(F)c2)C1 (centres unmarked) [drawing 1635] | 76 to 100%
14 | O=C(c1csc2c(O)nc(-c3ccccn3)nc12)N1CCOC(c2nccs2)C1 (centres unmarked) [drawing 1636] | 76 to 100%
15 | COc1ccnc(-c2nc(O)c3c(Br)csc3n2)c1 [drawing 1637] | 76 to 100%
16 | O=C(NCCc1cccnc1)c1csc2nc(-c3ccccn3)nc(N3CCOCC3)c12 [drawing 1638] | 76 to 100%
17 | COc1ccc(CCNC(=O)c2csc3nc(-c4ccccn4)nc(N4CCOCC4)c23)cn1 [drawing 1639] | 51 to 75%
18 | COc1ccc(CCN(C)C(=O)c2csc3nc(-c4ccccn4)nc(N4CCOCC4)c23)cn1 [drawing 1640] | 76 to 100%
19 | COc1cc(CCNC(=O)c2csc3nc(-c4ccccn4)nc(N4CCOCC4)c23)ccn1 [drawing 1641] | 51 to 75%
20 | COc1ncc(CCNC(=O)c2csc3nc(-c4ccccn4)nc(N4CCOCC4)c23)cn1 [drawing 1642] | 76 to 100%

Row | SMILES | inhibition at 30 µM
21 | O=C(NCCc1cncs1)c1csc2nc(-c3ccccn3)nc(N3CCOCC3)c12 [drawing 1643] | 76 to 100%
22 | N#Cc1ccc(CCNC(=O)c2csc3nc(-c4ccccn4)nc(N4CCOCC4)c23)cc1 [drawing 1644] | 25 to 50%
23 | CC(C)(C(=O)Nc1ccnc(-c2ccccn2)n1)c1ccc(C#N)cc1 [drawing 1645] | 76 to 100%
24 | CC(C)(C(=O)Nc1nc(-c2ccccn2)nc2sccc12)c1ccc(C#N)cc1 [drawing 1646] | 76 to 100%
25 | O=C(c1csc2c(O)nc(-c3ccccn3)nc12)N1CCN(c2cccc(F)c2)CC1 [drawing 1647] | 76 to 100%
26 | O=C(c1csc2c(O)nc(-c3ccccn3)nc12)N1CCN(c2ccc(F)cc2)CC1 [drawing 1648] | 76 to 100%
27 | N#Cc1cccc(N2CCN(C(=O)c3csc4c(O)nc(-c5ccccn5)nc34)CC2)c1 [drawing 1649] | 76 to 100%
28 | N#Cc1ccc(N2CCN(C(=O)c3csc4c(O)nc(-c5ccccn5)nc34)CC2)cc1 [drawing 1650] | 25 to 50%
29 | COc1cc(N2CCN(C(=O)c3csc4c(O)nc(-c5ccccn5)nc34)CC2)cc(OC)c1OC [drawing 1651] | 51 to 75%
30 | COc1ccc(N2CCN(C(=O)c3csc4c(O)nc(-c5ccccn5)nc34)CC2)c(OC)c1 [drawing 1652] | 76 to 100%
31 | O=C(c1csc2c(O)nc(-c3ccccn3)nc12)N1CCN(c2ccc(F)cc2F)CC1 [drawing 1653] | 76 to 100%
32 | CC1CN(c2ccccc2)CCN1C(=O)c1csc2c(O)nc(-c3ccccn3)nc12 (centres unmarked) [drawing 1654] | 76 to 100%
33 | O=C(c1csc2c(O)nc(-c3ccccn3)nc12)N1CCN(Cc2ccccc2)CC1 [drawing 1655] | 76 to 100%
34 | COc1cccc(CN2CCN(C(=O)c3csc4c(O)nc(-c5ccccn5)nc34)CC2)c1 [drawing 1656] | 76 to 100%
35 | O=C(c1csc2c(O)nc(-c3ccccn3)nc12)N1CCN(Cc2ccc(O)cc2)CC1 [drawing 1657] | 1 to 25%
